# Source: patent US6534676B2, “Method to treat chronic heart failure and/or elevated cholesterol levels using 3,5-diiodothyropropionic acid and method to prepare same” (The Arizona Board of Regents on Behalf of the University of …, priority 2001, dated 2003)
# Experiments:
# [1] = system: single myocytes from infarcted rabbit hearts; settings: cited from earlier work
# [2] = Cardiac performance, chronotropic and metabolic effect compared with L-thyroxine (background); assay type: in vivo
# Description: Because of potential adverse effects of thyroid hormone, such as metabolic stimulation and tachycardia, what is required are thyroid hormone analogs with fewer undesirable side effects. […] Like thyroid hormone, DITPA binds to nuclear T3 receptors of the c-erbA proto-oncogene family.
# [3] = Heart failure patients: serum lipid levels; assay type: in vivo, human; settings: for LDL-cholesterol: text baseline 107.3±42.8 mg/dL; for HDL Cholesterol / Triglyceride: serum; for HDL Cholesterol: baseline 32.8 ± 2.8; for Triglyceride: baseline 248.7 ± 40.4
# Description: DITPA cross-reacted with antibodies for detection of T3, which consequently was not measured. Renal and hepatic function tests also were performed. Patients were randomly assigned in double-blind fashion to receive either DITPA at a dosage of 1.875 mg/kg daily or placebo in two or three divided doses. For the first four days of drug administration patients were monitored on a telemetry unit. Thereafter, weekly electrocardiograms were performed and patients were examined for changes in thyroid or cardiac status or evidence of drug toxicity. At the end of two weeks an echocardiogram was obtained. If there was no clinical evidence of progression of heart failure or development of an arrhythmia the dose of DITPA was increased to 3.75 mg/kg daily. After an additional two weeks of treatment with the higher dosage of the drug patients were readmitted to the hospital and the tests performed in the initial evaluation were repeated. Right heart catheterization was performed after the patient had been fasted overnight; no premedication was given. Pulmonary artery, pulmonary capillary wedge and right heart pressures were measured with a 7 Fr Swan-Ganz catheter introduced into the right femoral vein. Blood pressures were recorded with an automated arm cuff system. After an initial stabilization period of 20 to 30 minutes, the resting hemodynamic measurements were obtained. Thermodilution cardiac output measurements were averaged from five recordings after discarding the highest and lowest values. All blood tests were performed in the Clinical Pathology Laboratory at the Southern Arizona Veterans Administration Health Care System.
# [4] = system: nuclear T3 receptors of the c-erbA proto-oncogene family; settings: background statement; cited from earlier work
# [5] = post-infarction rats, border zone around the infarct; cited from earlier work
# [6] = Double-blind DITPA versus placebo study in patients with congestive heart failure: clinical effects and tolerability; assay type: in vivo, human; settings: for Weight: baseline 98.7 ± 6.6, mean ± SE; for NY Heart Association functional class: baseline 2.5 ± 0.2; for Diastolic Blood Pressure: baseline 75.8 ± 4.2; for Heart Rate: baseline 81.3 ± 4.4; for Systolic Blood Pressure: baseline 122.8 ± 4.9
# Description: In clinical trials discussed below wherein DITPA was orally administered to volunteers and patients, the DITPA was mixed under the supervision of a registered pharmacist with lactose and packed into gelatin capsules containing 50 mg of the active ingredient. Identical capsules were packed with lactose to serve as placebo medication.
# Patients were eligible for enrollment in these clinical studies if they had symptoms of heart failure and an ejection fraction of less than 35%. Patients were required to be in sinus rhythm. Treatment with digitalis, angiotensin converting enzyme inhibitors, and diuretics were allowed, but β-adrenergic blocking agents were not permitted.
# Three patients in the placebo group and one patient receiving DITPA were taking an HMG-CoA reductase inhibitor. Patients were excluded from the study if they were receiving amiodarone, had unstable angina, myocardial infarction within 6 months, significant aortic stenosis, hepatic or renal insufficiency, anemia (hematocrit<30%), pre-existent thyroid disease, sensitivity to iodine, active cancer or any other life-threatening disease.
# All patients were hospitalized before initiating treatment and a right heart catheterization, radionuclide ejection fraction and echocardiogram were performed. Serum samples were drawn for measurement of thyrotropin, total T4, free T4, and reverse T3.
# (§1) DITPA cross-reacted with antibodies for detection of T3, which consequently was not measured. Renal and hepatic function tests also were performed. Patients were randomly assigned in double-blind fashion to receive either DITPA at a dosage of 1.875 mg/kg daily or placebo in two or three divided doses. For the first four days of drug administration patients were monitored on a telemetry unit. Thereafter, weekly electrocardiograms were performed and patients were examined for changes in thyroid or cardiac status or evidence of drug toxicity.
# (§2) At the end of two weeks an echocardiogram was obtained. If there was no clinical evidence of progression of heart failure or development of an arrhythmia the dose of DITPA was increased to 3.75 mg/kg daily. After an additional two weeks of treatment with the higher dosage of the drug patients were readmitted to the hospital and the tests performed in the initial evaluation were repeated.
# (§3) M-mode, two-dimensional, and Doppler echocardiograms were obtained with an ultrasonographic system equipped with a […] transducer (GE VingMed, Milwaukee, Wis.) according to the recommendation of the American Society of Echocardiography. Ejection fraction was measured by gated radionuclide myocardial imaging.
# Twenty-two patients underwent the initial right heart catheterization and were randomized to receive the subject drug or placebo. Nineteen patients completed the study (mean age 61.6, range 47 to 76). Patient functional classes, according to the New York Heart Association classification were II (n=12), III (n=7). One patient had dilated cardiomyopathy. The remaining patients had coronary artery disease, which was considered to be the most likely etiology of congestive heart failure. There was one death in a patient receiving placebo. One patient in the DITPA group was withdrawn because of abdominal pain and subsequently found to have cholelithiasis.
# [7] = Heart failure patients: echocardiography; assay type: in vivo, human; settings: for Shortening velocity: baseline 0.69 ± 0.15; for Ratio of early to late filling: baseline 1.10 ± 0.21; for LV diastolic dimension: baseline 6.84 ± 0.33; for Fractional shortening: baseline 17.0 ± 3.5; for Isovolumic relaxation time: baseline 92.2 ± 9.5; for LV mass: baseline 495.8 ± 45.9; for LV end-systolic dimension: baseline 5.72 ± 0.41
# Description: as §1, §2, §3
# [8] = heart failure patients, after four weeks
# [9] = heart failure patients, after two weeks
# [10] = after 2 weeks (1.875 mg/kg daily)
# [11] = after 4 weeks (3.75 mg/kg daily)
# [12] = heart failure patients, after 2 weeks (1.875 mg/kg daily)
# [13] = heart failure patients, after 4 weeks (3.75 mg/kg daily)
# [14] = echocardiography, after 2 weeks (1.875 mg/kg daily)
# [15] = echocardiography, after 4 weeks (3.75 mg/kg daily)
smiles,measurement,setting,value
"O=C(O)CCc1cc(I)c(Oc2ccc(O)cc2)c(I)c1 [DITPA, 3,5-Diiodothyropropionic acid]",calcium transport in the sarcoplasmic reticulum (SR),[1]; post-infarction heart failure in rabbits,enhances calcium transport in the sarcoplasmic reticulum (SR)
same,contraction-frequency relationship,[1]; single myocytes from infarcted rabbit hearts,prevents the flattened contraction-frequency relationship
same,chronotropic effect relative to L-thyroxine,[2]; at increased cardiac performance,approximately half of the chronotropic effect
same,metabolic stimulation relative to L-thyroxine,[2]; in vivo,less metabolic stimulation than L-thyroxine
same,cholesterol,"[3]; heart failure patients n=9, serum, after 2 weeks (1.875 mg/kg daily), baseline 198.9 ± 19.7",160.6 ± 14.3^++ ng/dL
same,LDL-cholesterol,"[3]; heart failure patients, after 4 weeks",80.5 ± 13.7 mg/dL
same,decrease in LDL-cholesterol,[3]; [8],25%
same,decrease in cholesterol,[3]; [8],24%
same,decrease in serum triglycerides,"[3]; heart failure patients, after four weeks, P=0.005",35%
same,cholesterol,"[3]; heart failure patients, after four weeks, text baseline 185.8±46.9 mg/dL, P=0.013",140.7 ± 16.2 mg/dL
same,average decrease in LDL-cholesterol,[3]; [9],17%
same,average decrease in cholesterol,[3]; [9],14%
same,decrease in serum triglycerides,"[3]; heart failure patients, after two weeks, P<0.05",11%
same,cholesterol,"[3]; heart failure patients, after two weeks, text baseline 185.8±46.9 mg/dL, P<0.05",160.6 ± 14.3 mg/dL
same,LDL-cholesterol,"[3]; heart failure patients, at two weeks",89.4 ± 12.7 mg/dL
same,HDL Cholesterol,[3]; [10],30.6 ± 2.0 mg/dL
same,Triglyceride,[3]; [10],203.0 ± 30.4^++ mg/dL
same,HDL Cholesterol,[3]; [11],31.4 ± 3.1 mg/dL
same,Triglyceride,[3]; [11],143.7 ± 21.1 mg/dL
same,patients in whom LDL-cholesterol decreased,[3]; treated for 4 weeks,8 of 9
same,binding to nuclear T3 receptors,[4],binds
same,capillary growth,[5],increase in capillary growth
same,arrhythmias,[6]; heart failure patients,No arrhythmias were noted
same,clinical manifestations of hyperthyroidism,[6]; heart failure patients,not observed
same,frequency or severity of anginal attacks,[6]; heart failure patients,no increase in frequency or severity of anginal attacks
same,Weight,"[6]; heart failure patients n=9, after 4 weeks (last 2 weeks 3.75 mg/kg daily)",94.7 ± 18.8 kg
same,Weight,"[6]; heart failure patients n=9, oral, after 2 weeks (1.875 mg/kg daily)",98.2 ± 19.3 kg
same,decrease in body weight,"[6]; heart failure patients, DITPA group, after 4 weeks, P=0.059 vs placebo",4 kg
same,NY Heart Association functional class,[6]; [12],2.4 ± 0.2
same,Diastolic Blood Pressure,[6]; [12],65.7 ± 3.3 mm Hg
same,Heart Rate,[6]; [12],83.4 ± 6.5 beats/min
same,Systolic Blood Pressure,[6]; [12],116.2 ± 7.4 mm Hg
same,NY Heart Association functional class,[6]; [13],2.5 ± 0.2
same,Radionuclide Ejection Fraction,"[6]; heart failure patients, after 4 weeks (3.75 mg/kg daily), baseline 18.1 ± 2.4",20.6 ± 3.2%
same,Diastolic Blood Pressure,[6]; [13],66.4 ± 3.6 mm Hg
same,Heart Rate,[6]; [13],82.2 ± 4.7 beats/min
same,Systolic Blood Pressure,[6]; [13],119.1 ± 6.1 mm Hg
same,tolerability,[6]; patients with ischemic heart disease / heart failure,well tolerated
same,Shortening velocity,[7]; [14],0.55 ± 0.09 circ/sec
same,Ratio of early to late filling,[7]; [14],0.89 ± 0.17
same,LV diastolic dimension,[7]; [14],6.83 ± 0.35 cm
same,Fractional shortening,[7]; [14],13.8 ± 2.4%
same,Isovolumic relaxation time,"[7]; echocardiography, after 2 weeks (1.875 mg/kg daily), contrast baseline to 2 weeks P = 0.051",87.5 ± 9.2^++ msec
same,LV mass,[7]; [14],474.2 ± 38.2 g
same,Shortening velocity,[7]; [15],0.57 ± 0.10 circ/sec
same,Ratio of early to late filling,[7]; [15],1.16 ± 0.26
same,LV end-systolic dimension,[7]; [15],6.01 ± 0.33 cm
same,LV diastolic dimension,[7]; [15],6.96 ± 0.30 cm
same,Fractional shortening,[7]; [15],13.8 ± 2.5%
same,Isovolumic relaxation time,"[7]; echocardiography, after 4 weeks (3.75 mg/kg daily), ANOVA P 0.045",84.4 ± 8.5 ms
same,LV mass,[7]; [15],477.9 ± 40.5 g
same,LV end-systolic dimension,"[7]; heart failure patients n=9, echocardiography, after 2 weeks (1.875 mg/kg daily)",5.87 ± 0.30 cm
